Test results reported in ChEMBL document CHEMBL1141364, “Design and synthesis of indane-ureido-thioisobutyric acids: A novel class of PPARalpha agonists” (Bioorg Med Chem Lett, 2007).

Columns and labels:
[1] = target: T1, Peroxisome proliferator-activated receptor alpha (Rattus norvegicus, UniProt P37230); assay: Agonist activity at rat PPARalpha in rat H4IIE cells assessed as gene induction; type: functional, cell-based
T1 sequence (P37230 whole entry): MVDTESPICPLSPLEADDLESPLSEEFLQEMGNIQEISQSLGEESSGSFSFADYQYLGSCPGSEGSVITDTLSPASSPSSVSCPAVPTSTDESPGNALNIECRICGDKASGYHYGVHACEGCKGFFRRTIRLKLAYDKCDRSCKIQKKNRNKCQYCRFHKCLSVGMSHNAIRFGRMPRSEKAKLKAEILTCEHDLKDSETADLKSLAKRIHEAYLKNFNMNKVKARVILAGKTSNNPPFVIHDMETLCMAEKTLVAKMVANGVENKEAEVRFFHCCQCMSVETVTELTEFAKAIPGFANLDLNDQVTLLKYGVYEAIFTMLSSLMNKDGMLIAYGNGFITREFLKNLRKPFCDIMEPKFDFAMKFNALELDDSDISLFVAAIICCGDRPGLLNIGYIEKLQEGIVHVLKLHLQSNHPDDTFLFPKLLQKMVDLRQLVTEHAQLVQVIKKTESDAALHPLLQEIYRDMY

[2] = target: T2, Peroxisome proliferator-activated receptor alpha (Homo sapiens, UniProt Q07869); assay: Agonist activity at PPARalpha expressed in HEK293 cells by GAL4 transactivation assay; type: functional, cell-based
T2 sequence (Q07869 whole entry): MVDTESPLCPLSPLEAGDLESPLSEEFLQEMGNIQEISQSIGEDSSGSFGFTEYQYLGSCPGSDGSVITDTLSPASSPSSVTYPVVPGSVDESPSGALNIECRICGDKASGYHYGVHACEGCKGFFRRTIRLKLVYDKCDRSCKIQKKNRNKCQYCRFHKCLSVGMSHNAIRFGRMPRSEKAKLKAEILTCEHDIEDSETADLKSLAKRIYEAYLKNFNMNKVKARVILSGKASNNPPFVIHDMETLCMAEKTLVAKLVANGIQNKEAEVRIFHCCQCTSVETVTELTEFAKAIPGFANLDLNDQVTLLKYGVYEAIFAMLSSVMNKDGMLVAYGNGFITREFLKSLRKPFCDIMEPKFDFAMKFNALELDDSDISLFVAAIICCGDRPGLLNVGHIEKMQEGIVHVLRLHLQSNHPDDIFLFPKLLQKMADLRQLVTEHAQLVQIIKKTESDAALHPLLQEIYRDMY

[3] = target: T3, Peroxisome proliferator-activated receptor delta (Homo sapiens, UniProt Q03181); assay: Agonist activity at PPARdelta expressed in HEK293 cells by GAL4 transactivation assay; type: functional, cell-based
T3 sequence (Q03181 whole entry): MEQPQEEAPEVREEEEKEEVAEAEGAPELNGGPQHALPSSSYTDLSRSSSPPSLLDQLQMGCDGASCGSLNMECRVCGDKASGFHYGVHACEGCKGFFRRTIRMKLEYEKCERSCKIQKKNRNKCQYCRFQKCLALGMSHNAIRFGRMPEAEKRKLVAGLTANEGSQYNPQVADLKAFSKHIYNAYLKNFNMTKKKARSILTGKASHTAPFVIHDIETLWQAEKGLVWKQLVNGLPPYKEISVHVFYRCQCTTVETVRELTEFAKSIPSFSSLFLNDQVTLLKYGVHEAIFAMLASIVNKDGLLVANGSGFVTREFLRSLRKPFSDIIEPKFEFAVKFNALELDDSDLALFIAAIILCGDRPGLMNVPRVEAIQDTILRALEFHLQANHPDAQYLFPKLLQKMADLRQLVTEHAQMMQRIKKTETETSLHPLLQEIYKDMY

[4] = target: T4, Peroxisome proliferator-activated receptor gamma (Homo sapiens) (UniProt P37231); assay: Agonist activity at PPARgamma expressed in HEK293 cells assessed as aP2 gene induction relative to BRL-49653; type: functional, cell-based
T4 sequence (whole entry): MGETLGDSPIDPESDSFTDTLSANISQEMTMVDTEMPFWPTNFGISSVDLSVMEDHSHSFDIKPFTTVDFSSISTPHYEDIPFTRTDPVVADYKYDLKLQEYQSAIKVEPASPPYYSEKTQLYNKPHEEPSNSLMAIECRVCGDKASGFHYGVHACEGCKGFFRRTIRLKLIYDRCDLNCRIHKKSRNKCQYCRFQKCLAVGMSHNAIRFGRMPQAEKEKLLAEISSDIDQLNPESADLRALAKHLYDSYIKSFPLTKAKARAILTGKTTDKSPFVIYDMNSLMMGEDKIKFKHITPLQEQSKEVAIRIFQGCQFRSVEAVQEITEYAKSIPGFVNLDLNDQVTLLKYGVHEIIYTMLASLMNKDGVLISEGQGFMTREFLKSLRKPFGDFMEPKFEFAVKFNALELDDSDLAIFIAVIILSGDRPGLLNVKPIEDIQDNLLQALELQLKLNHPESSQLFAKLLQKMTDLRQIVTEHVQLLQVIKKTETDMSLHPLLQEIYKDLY

[5] = target: T5, Peroxisome proliferator-activated receptor gamma (Homo sapiens, UniProt P37231)
T5 sequence (P37231 whole entry): T4 sequence (whole entry)
Description: Agonist activity at PPARgamma expressed in HEK293 cells by GAL4 transactivation assay

Mus musculus [6] = assay: Reduction in insulin levels in db/db mouse plasma at 0.1 mg/kg, po after 11 days; set-up: scale not given: the % may be the effect or the level left
Mus musculus [7] = assay: Reduction in glucose levels in db/db mouse plasma at 0.1 mg/kg, po after 11 days; set-up: scale not given: the % may be the effect or the level left
Mus musculus [8] = assay: Reduction in triglyceride levels in db/db mouse plasma at 0.1 mg/kg, po after 11 days; set-up: scale not given: the % may be the effect or the level left
[9] = Metabolic stability in human liver microsomes at 5 uM; type: ADME, Microsome
[10] = Cmax in Sprague-Dawley rat at 3 mg/kg, iv or 30 mg/kg, po; type: ADME, organism-based; settings: in vivo
[11] = AUC in Sprague-Dawley rat at 3 mg/kg, iv or 30 mg/kg, po; type: ADME, organism-based; settings: plasma
[12] = Half life at terminal phase in Sprague-Dawley rat at 30 mg/kg, po; type: ADME, organism-based; set-up: dose 30 mg/kg, route oral; settings: in vivo, read-out: beta t1/2 (converted)
[13] = Total clearance in Sprague-Dawley rat at 3 mg/kg, iv or 30 mg/kg, po; type: ADME, organism-based; settings: in vivo
[14] = Oral bioavailability in Sprague-Dawley rat at 30 mg/kg; type: ADME, organism-based; settings: in vivo
Mus musculus [15] = assay: Reduction in body weight of db/db mouse at 1 mg/kg, po after 11 days; set-up: scale not given: the % may be the effect or the level left
Mus musculus [16] = assay: Reduction in glucose levels in db/db mouse plasma at 1 mg/kg, po after 11 days; set-up: scale not given: the % may be the effect or the level left
Mus musculus [17] = assay: Reduction in insulin levels in db/db mouse plasma at 1 mg/kg, po after 11 days; set-up: scale not given: the % may be the effect or the level left
Mus musculus [18] = assay: Reduction in triglyceride levels in db/db mouse plasma at 1 mg/kg, po after 11 days; set-up: scale not given: the % may be the effect or the level left

CCN(C(=O)Nc1ccc(OC(F)(F)F)cc1)[C@@H]1Cc2ccc(SC(C)(C)C(=O)O)cc2C1
EC50 [1]: 0.002 µM
EC50 [2]: 0.17 µM
EC50 [3]: 2.1 µM
Activity [4]: 3.8%
EC50 [5]: > 10 µM
Activity (Mus musculus [6]): 49%
Activity (Mus musculus [7]): 16%
Activity (Mus musculus [8]): 43%

CCN(C(=O)Nc1ccc(OC(F)(F)F)cc1)C1Cc2ccc(SC(C)(C)C(=O)O)cc2C1 (centres undefined)
EC50 [1]: 0.033 µM
half-life at 5 µM [9]: 1.67 h
Cmax [10]: 39300 ng/mL
AUC [11]: 290 µg·h/mL
half-life [12]: 4 h
clearance [13]: 0.1 mL/min/kg
bioavailability [14]: 59%
Activity (Mus musculus [15]): 59%
Activity (Mus musculus [16]): 60%
Activity (Mus musculus [17]): 53%
Activity (Mus musculus [18]): 56%
